2 compounds from ChEMBL document CHEMBL5537113, “Discovery of 1,2-diaryl-3-oxopyrazolidin-4-carboxamides as a new class of MurA enzyme inhibitors and characterization of their antibacterial activity” (Eur J Med Chem, 2023) can be followed below.

pIC50: −log10 of the molar value.

Data set [1] deals with Clostridioides difficile. In words: Antibacterial activity against Clostridioides difficile NR-49277 assessed as reduction in microbial growth incubated for 48 hrs by broth microdilution method. The data set is classed as functional. (In general: In broth dilution the organism is exposed to a series of concentrations in liquid medium.)
A further data set deals with Lactobacillus crispatus. In words: Antibacterial activity against Lactobacillus crispatus HM 103 assessed as reduction in microbial growth incubated for 48 hrs by broth microdilution method. The data set is classed as functional.
Data set [2] relates to Staphylococcus aureus. In words: Antibacterial activity against methicillin resistant Staphylococcus aureus NRS119 assessed as reduction in microbial growth by CLSI based broth microdilution method. It is filed as functional.
Data set [3] relates to Clostridioides difficile. Nature of the data set: Antibacterial activity against Clostridioides difficile NR-32895 assessed as reduction in microbial growth incubated for 48 hrs by broth microdilution method. It is filed as functional.
Another data set concerns Streptococcus pneumoniae. Nature of the data set: Antibacterial activity against Streptococcus pneumoniae ATCC 700677 assessed as reduction in microbial growth by CLSI based broth microdilution method. The data set is classed as functional.
Another data set relates to Bacteroides fragilis. In words: Antibacterial activity against Bacteroides fragilis HM 709 assessed as reduction in microbial growth incubated for 48 hrs by broth microdilution method. It is filed as functional.
For data set [4], the target named is UDP-N-acetylglucosamine 1-carboxyvinyltransferase (Escherichia coli K-12, UniProt P0A749, C115D). Nature of the data set: Inhibition of Escherichia coli MurA C115D mutant at 50 uM using UNAG as substrate pre incubated for 15 mins followed by substrate addition and measured after 15 mins by microplate reader analysis relative to control.
Sequence of UDP-N-acetylglucosamine 1-carboxyvinyltransferase (P0A749 whole entry C115D): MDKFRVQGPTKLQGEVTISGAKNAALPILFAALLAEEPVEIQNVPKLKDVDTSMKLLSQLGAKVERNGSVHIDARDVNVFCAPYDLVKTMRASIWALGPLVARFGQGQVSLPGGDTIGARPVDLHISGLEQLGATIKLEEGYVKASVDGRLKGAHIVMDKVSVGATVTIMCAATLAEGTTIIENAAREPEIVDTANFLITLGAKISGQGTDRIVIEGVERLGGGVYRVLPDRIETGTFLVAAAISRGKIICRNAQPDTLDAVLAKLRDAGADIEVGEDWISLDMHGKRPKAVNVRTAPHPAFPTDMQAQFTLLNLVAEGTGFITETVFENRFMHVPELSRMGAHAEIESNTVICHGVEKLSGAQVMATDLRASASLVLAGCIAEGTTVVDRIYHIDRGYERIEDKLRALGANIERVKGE
A short description of data set [5]: Stability of compound in LB broth medium at 10 uM incubated for 24 hrs at 37 degC by UHPLC-MS/MS analysis. The data set is classed as physicochemical.
The test system of the next data set is Lactobacillus gasseri. In words: Antibacterial activity against Lactobacillus gasseri HM 403 assessed as reduction in microbial growth incubated for 48 hrs by broth microdilution method. The data set is classed as functional.
The test system of data set [6] is Caco-2. Nature of the data set: Cytotoxicity against human Caco-2 cells assessed as reduction in cell viability at 64 ug/ml after 24 hrs by MTS assay. The data set is classed as toxicity, cell-based. Particulars: caco-2, 24 h, dose 64 µg/ml. In general terms: Formazan colour is commonly taken as a measure of viable cells.
Data set [7] can be described thus: Drug uptake in Escherichia coli harboring tolC deletion mutant at 10 uM incubated for 30 mins by LC analysis. It is filed as ADME. As to conditions: 0.5 h.
For data set [8], the system named is UDP-N-acetylglucosamine 1-carboxyvinyltransferase (Escherichia coli K-12), P0A749 [C115D]. Nature of the data set: Inhibition of Escherichia coli MurA C115D mutant using UNAG as substrate pre incubated for 15 mins followed by substrate addition and measured after 15 mins by microplate reader analysis. Particulars: time 30.0 min.
Sequence of UDP-N-acetylglucosamine 1-carboxyvinyltransferase (Escherichia coli K-12), P0A749 [C115D] (P0A749 whole entry C115D): as above
Data set [9] relates to Clostridioides difficile. In words: Bactericidal activity against Clostridioides difficile NR-49284 assessed as reduction in microbial growth by broth microdilution method. It is filed as functional.
The nature of data set [10]: Drug uptake in Escherichia coli harboring tolC deletion mutant assessed per 1.6x10^9 cells at 10 uM incubated for 30 mins by LC analysis. The data set is classed as ADME. As to conditions: 0.5 h.
The subject of data set [11] is Clostridioides difficile. In words: Selectivity ratio of MBC for antibacterial activity against Clostridioides difficile ATCC 43255 to MIC for antibacterial activity against Clostridioides difficile […]. It is filed as functional.
The test system of data set [12] is Clostridioides difficile. In words: Antibacterial activity against Clostridioides difficile ATCC BAA1870 assessed as reduction in microbial growth incubated for 48 hrs by broth microdilution method. The data set is classed as functional.
Data set [13] has as its system Clostridioides difficile. Nature of the data set: Antibacterial activity against Clostridioides difficile NR-32904 assessed as reduction in microbial growth incubated for 48 hrs by broth microdilution method. The data set is classed as functional.
Data set [14] has as its system Staphylococcus aureus. Nature of the data set: Antibacterial activity against vancomycin resistant Staphylococcus aureus 10 assessed as reduction in microbial growth by CLSI based broth microdilution method. The data set is classed as functional.
For data set [15], the system named is Clostridioides difficile. Nature of the data set: Antibacterial activity against Clostridioides difficile NR-13427 assessed as reduction in microbial growth incubated for 48 hrs by broth microdilution method. It is filed as functional.
For data set [16], the system named is Clostridioides difficile. In words: Antibacterial activity against Clostridioides difficile NR-49278 assessed as reduction in microbial growth incubated for 48 hrs by broth microdilution method. The data set is classed as functional.
The subject of data set [17] is Caco-2. In words: Cytotoxicity against human Caco-2 cells assessed as reduction in cell viability at > 128 ug/ml after 24 hrs by MTS assay. The data set is classed as toxicity, cell-based. Particulars: caco-2, 24 h, dose > 128 µg/ml.

What is called MIC is the smallest concentration in the dilution series that meets the test's criterion for growth inhibition. A word on the pIC50: it is the negative decadic logarithm of the IC50, by convention in mol/L. As a reminder, the inhibition is the change of the read-out against control, counted positive when it falls. By MBC is commonly meant the smallest concentration meeting the test's criterion for killing. With `O=C(Nc1ncc([N+](=O)[O-])s1)C1CN(c2cccc(Cl)c2)N(c2cccc(Cl)c2)C1=O` (stereo unspecified), the MIC in the data set with Clostridioides difficile [1] is 0.5 µg/mL; in the data set with Lactobacillus crispatus, > 64 µg/mL; in the data set with Staphylococcus aureus [2], 1 µg/mL; with Clostridioides difficile [3], 0.5 µg/mL; with Streptococcus pneumoniae, 4 µg/mL; in the data set on Bacteroides fragilis, 4 µg/mL. Also, the MIC in the data set with Lactobacillus gasseri is > 64 µg/mL; with Clostridioides difficile [12], 0.25 µg/mL; in the data set with Clostridioides difficile [13], 0.5 µg/mL; with Staphylococcus aureus [14] it was 4 µg/mL; in the data set on Clostridioides difficile [15] it was 0.5 µg/mL; with Clostridioides difficile [16], 0.5 µg/mL. In [4], this compound showed a pIC50 of 4.96. In addition, the Stability entry in data set [5] is on record as “Stable”. Also, in the data set on Caco-2 [6], the Activity result is reported as “Non-Toxic”. Besides, the Drug uptake in [7] was determined as 56 nM; in data set [10] it was 1.8 µM. The same compound returned an inhibition in data set [8] of 76%. In addition, in the data set with Clostridioides difficile [9], the MBC worked out at 0.5 µg/mL. The Ratio in the data set with Clostridioides difficile [11] is given as 1.
Turning to `O=C(Nc1ncc([N+](=O)[O-])s1)C1CN(c2ccc(Cl)cc2)N(c2ccc(Cl)cc2)C1=O` (stereo unspecified), the Activity result with Caco-2 [17] was “Non-Toxic”. For the same compound, the MIC with Clostridioides difficile [1] is 1 µg/mL; in the data set with Lactobacillus crispatus it was > 64 µg/mL; in the data set with Staphylococcus aureus [2], 64 µg/mL; with Clostridioides difficile [3] it was 1 µg/mL; with Streptococcus pneumoniae it was 64 µg/mL; with Bacteroides fragilis it was 4 µg/mL. For the same compound, the MIC is > 64 µg/mL in the data set on Lactobacillus gasseri; 0.5 µg/mL with Clostridioides difficile [12]; 0.5 µg/mL in the data set on Clostridioides difficile [13]; > 64 µg/mL in the data set with Staphylococcus aureus [14]; 0.5 µg/mL with Clostridioides difficile [15]; 0.5 µg/mL with Clostridioides difficile [16]. Besides, the Stability result in data set [5] was “Stable”. Also, the MBC in the data set on Clostridioides difficile [9] was 0.5 µg/mL. In addition, in the data set on Clostridioides difficile [11], the Ratio is given as 1.
